From publication PMC9232501, “Results of the phase I CCTG IND.231 trial of CX-5461 in patients with advanced solid tumors enriched for DNA-repair deficiencies” (Nature Communications, 2022)
Marks after values point to notes of the source that are not given here.

Assays:
[1] = test system: patients with advanced solid tumors; experiment: Phase I dose escalation: safety, tolerability, dose-limiting toxicity (CTCAE v4.0)
Text: Doses were escalated using a 3 + 3 design, which allowed 3 or 4 patients to be initially enrolled in each dose level. […] The MAD was defined as the dose level at which ≥2/3 or ≥2/6 patients experienced dose-limiting toxicity. The RP2D was defined as the next lower dose below the MAD.
DLT included the following drug-related AEs occurring during cycle 1: grade 3 phototoxicity or grade 2 phototoxicity with blistering lasting ≥7 days, if adequate prevention was used; other grades 3 or 4 non-hematologic toxicity (excluding inadequately managed nausea and vomiting, alopecia or grade 3 fatigue lasting <7 days); grade 4 myelosuppression ≥7 days, febrile neutropenia or ≥grade 3 thrombocytopenic bleeding; or other toxicities of concern including those requiring ≥14 days delay in next cycle.
The starting dose was 50 mg/m^2 d1 and 8. An expansion cohort at the RP2D of 10-20 patients with breast cancer and BRCA1/2 (germline) or relevant somatic aberrations was planned.
AEs were assessed according to National Cancer Institute Common Terminology Criteria for Adverse Events (CTCAE) v4.0.

HCT116 cells = experiment: ROS measurement with H2DCFDA before/after UVA 125 mJ/cm^2; format: cell-based, Human; settings: CX-5461 0.1 μM or PDS 10 μM for 1 h
Procedure: ROS measurement with H2DCFDA: HCT116 cells were treated with vehicle, CX-5461 0.1 μM or PDS 10 μM for 1 h, then were added with H2DCFDA for 45 min before initial fluorescence measurement. Cells were then irradiated with UVA 125 mJ/cm^2, and immediately sent for a second fluorescent measurement. The ratio of the second and the first fluorescent measurement was calculated as the level of ROS induced by UVA. Assays were performed in the 1-hour time frame within which UV damage manifests, in contrast to G4 ligand-induced damage which takes 3–4 h to be measurable.
Supplementary Figures and Tables
Supplementary Figure 1. UVA radiation increased double-stranded DNA breaks and ROS.
Representative pictures of g -H2AX immunofluorescent staining with and without UVA radiation, for […]
condition, quantified in (b) Quantile and mean intensity of g-H2AX level per cell, vertical axis. UV and drug factor conditions, horizontal axis. Experiments were repeated two times (biological duplicates) and similar results were obtained. Number of cells as in Figure 5 g (c) The ratio of ROS level measured after UVA irradiation versus before UVA irradiation was calculated. Biological triplicates. The horizontal bar = median. ***P<0.0001, Welch’s t-test; n=8
(1 picture or pasted object on this page, not shown here)

[2] = 325 mg/m^2 d1,8,15, N patients 4
[3] = 650 mg/m^2 d1,8,15, N patients 5
[4] = 40 treated patients, all dose levels
[5] = 475* mg/m^2 d1,8,15, N patients 6

Cc1cnc(CNC(=O)c2c(=O)c3ccc(N4CCCN(C)CC4)nc3n3c2sc2ccccc23)cn1 [CX-5461]
Diarrhea, any causality, all grades (patients) ([1]; 50 mg/m^2 d1,8, N patients 4): 2
Dry eye, any causality, all grades (patients) ([1]; 50 mg/m^2 d1,8, N patients 4): 1
Fatigue, any causality, all grades (patients) ([1]; 50 mg/m^2 d1,8, N patients 4): 4
Headache, any causality, all grades (patients) ([1]; 50 mg/m^2 d1,8, N patients 4): 1
Nausea, any causality, all grades (patients) ([1]; 50 mg/m^2 d1,8, N patients 4): 3
Palmar–plantar erythrodysesthesia syndrome, any causality, all grades (patients) ([1]; 50 mg/m^2 d1,8, N patients 4): 1
Phototoxicity, any causality, all grades (patients) ([1]; 50 mg/m^2 d1,8, N patients 4): 2
Phototoxicity, number in parentheses (undefined in table; fits grade 3–4 count) ([1]; 50 mg/m^2 d1,8, N patients 4): 1
Diarrhea, any causality, all grades (patients) ([1]; 100 mg/m^2 d1,8, N patients 4): 1
Dry eye, any causality, all grades (patients) ([1]; 100 mg/m^2 d1,8, N patients 4): 1
Eye phototoxicity, any causality, all grades (patients) ([1]; 100 mg/m^2 d1,8, N patients 4): 1
Fatigue, any causality, all grades (patients) ([1]; 100 mg/m^2 d1,8, N patients 4): 3
Headache, any causality, all grades (patients) ([1]; 100 mg/m^2 d1,8, N patients 4): 3
Mucositis oral, any causality, all grades (patients) ([1]; 100 mg/m^2 d1,8, N patients 4): 2
Nausea, any causality, all grades (patients) ([1]; 100 mg/m^2 d1,8, N patients 4): 3
Palmar–plantar erythrodysesthesia syndrome, any causality, all grades (patients) ([1]; 100 mg/m^2 d1,8, N patients 4): 1
Phototoxicity, any causality, all grades (patients) ([1]; 100 mg/m^2 d1,8, N patients 4): 1
Diarrhea, any causality, all grades (patients) ([1]; 150 mg/m^2 d1,8, N patients 4): 1
Dry eye, any causality, all grades (patients) ([1]; 150 mg/m^2 d1,8, N patients 4): 2
Fatigue, any causality, all grades (patients) ([1]; 150 mg/m^2 d1,8, N patients 4): 3
Headache, any causality, all grades (patients) ([1]; 150 mg/m^2 d1,8, N patients 4): 2
Mucositis oral, any causality, all grades (patients) ([1]; 150 mg/m^2 d1,8, N patients 4): 1
Nausea, any causality, all grades (patients) ([1]; 150 mg/m^2 d1,8, N patients 4): 4
Palmar–plantar erythrodysesthesia syndrome, any causality, all grades (patients) ([1]; 150 mg/m^2 d1,8, N patients 4): 1
Phototoxicity, any causality, all grades (patients) ([1]; 150 mg/m^2 d1,8, N patients 4): 1
ALT, Grade 3 or 4 (patients) ([1]; 150 mg/m^2 d1,8, N pts 4): 2
AST, Grade 3 or 4 (patients) ([1]; 150 mg/m^2 d1,8, N pts 4): 2
Alkaline phosphatase, Grade 3 or 4 (patients) ([1]; 150 mg/m^2 d1,8, N pts 4): 1
Bilirubin, Grade 3 or 4 (patients) ([1]; 150 mg/m^2 d1,8, N pts 4): 1
Neutropenia, Grade 3 or 4 (patients) ([1]; 150 mg/m^2 d1,8, N pts 4): 1
Thrombocytopenia, Grade 3 or 4 (patients) ([1]; 150 mg/m^2 d1,8, N pts 4): 1
Diarrhea, any causality, all grades (patients) ([1]; 200 mg/m^2 d1,8, N patients 4): 2
Dry eye, any causality, all grades (patients) ([1]; 200 mg/m^2 d1,8, N patients 4): 1
Fatigue, any causality, all grades (patients) ([1]; 200 mg/m^2 d1,8, N patients 4): 2
Nausea, any causality, all grades (patients) ([1]; 200 mg/m^2 d1,8, N patients 4): 3
Phototoxicity, any causality, all grades (patients) ([1]; 200 mg/m^2 d1,8, N patients 4): 2
ALT, Grade 3 or 4 (patients) ([1]; 200 mg/m^2 d1,8, N pts 4): 1
AST, Grade 3 or 4 (patients) ([1]; 200 mg/m^2 d1,8, N pts 4): 1
Anemia, Grade 3 or 4 (patients) ([1]; 200 mg/m^2 d1,8, N pts 4): 1
Fatigue, any causality, all grades (patients) ([1]; 250 mg/m^2 d1,8, N patients 3): 2
Headache, any causality, all grades (patients) ([1]; 250 mg/m^2 d1,8, N patients 3): 1
Mucositis oral, any causality, all grades (patients) ([1]; 250 mg/m^2 d1,8, N patients 3): 1
Nausea, any causality, all grades (patients) ([1]; 250 mg/m^2 d1,8, N patients 3): 2
Palmar–plantar erythrodysesthesia syndrome, any causality, all grades (patients) ([1]; 250 mg/m^2 d1,8, N patients 3): 2
Phototoxicity, any causality, all grades (patients) ([1]; 250 mg/m^2 d1,8, N patients 3): 3
Phototoxicity, number in parentheses (undefined in table; fits grade 3–4 count) ([1]; 250 mg/m^2 d1,8, N patients 3): 1
Dry eye, any causality, all grades (patients) [1, 2]: 1
Eye phototoxicity, any causality, all grades (patients) [1, 2]: 1
Fatigue, any causality, all grades (patients) [1, 2]: 2
Nausea, any causality, all grades (patients) [1, 2]: 1
Palmar–plantar erythrodysesthesia syndrome, any causality, all grades (patients) [1, 2]: 1
Phototoxicity, any causality, all grades (patients) [1, 2]: 4
Phototoxicity, number in parentheses (undefined in table; fits grade 3–4 count) [1, 2]: 1
AST, Grade 3 or 4 (patients) ([1]; 325 mg/m^2 d1,8,15, N pts 4): 1
Neutropenia, Grade 3 or 4 (patients) ([1]; 325 mg/m^2 d1,8,15, N pts 4): 1
Diarrhea, any causality, all grades (patients) ([1]; 325 mg/m^2 d1,8, N patients 3): 1
Fatigue, any causality, all grades (patients) ([1]; 325 mg/m^2 d1,8, N patients 3): 3
Fatigue, number in parentheses (undefined in table; fits grade 3–4 count) ([1]; 325 mg/m^2 d1,8, N patients 3): 1
Nausea, any causality, all grades (patients) ([1]; 325 mg/m^2 d1,8, N patients 3): 2
Nausea, number in parentheses (undefined in table; fits grade 3–4 count) ([1]; 325 mg/m^2 d1,8, N patients 3): 1
Palmar–plantar erythrodysesthesia syndrome, any causality, all grades (patients) ([1]; 325 mg/m^2 d1,8, N patients 3): 1
Phototoxicity, any causality, all grades (patients) ([1]; 325 mg/m^2 d1,8, N patients 3): 1
Eye phototoxicity, any causality, all grades (patients) ([1]; 475 mg/m^2 d1,8, N patients 3): 1
Fatigue, any causality, all grades (patients) ([1]; 475 mg/m^2 d1,8, N patients 3): 2
Mucositis oral, any causality, all grades (patients) ([1]; 475 mg/m^2 d1,8, N patients 3): 1
Nausea, any causality, all grades (patients) ([1]; 475 mg/m^2 d1,8, N patients 3): 1
Palmar–plantar erythrodysesthesia syndrome, any causality, all grades (patients) ([1]; 475 mg/m^2 d1,8, N patients 3): 1
Phototoxicity, any causality, all grades (patients) ([1]; 475 mg/m^2 d1,8, N patients 3): 3
Diarrhea, any causality, all grades (patients) [1, 3]: 1
Dry eye, any causality, all grades (patients) [1, 3]: 1
Eye phototoxicity, any causality, all grades (patients) [1, 3]: 3
Fatigue, any causality, all grades (patients) [1, 3]: 3
Fatigue, number in parentheses (undefined in table; fits grade 3–4 count) [1, 3]: 1
Headache, any causality, all grades (patients) [1, 3]: 1
Mucositis oral, any causality, all grades (patients) [1, 3]: 2
Nausea, any causality, all grades (patients) [1, 3]: 3
Palmar–plantar erythrodysesthesia syndrome, any causality, all grades (patients) [1, 3]: 1 (1)
Palmar–plantar erythrodysesthesia syndrome, number in parentheses (undefined in table; fits grade 3–4 count) [1, 3]: 1 (1)
Phototoxicity, any causality, all grades (patients) [1, 3]: 3
Phototoxicity, number in parentheses (undefined in table; fits grade 3–4 count) [1, 3]: 1
Alkaline phosphatase, Grade 3 or 4 (patients) ([1]; 650 mg/m^2 d1,8,15, N pts 5): 1
Neutropenia, Grade 3 or 4 (patients) ([1]; 650 mg/m^2 d1,8,15, N pts 5): 2
toxicity to ionizing radiation ([1]; 13 patients who received radiotherapy during or following treatment): no excess toxicity to ionizing radiation
Treatment-related Dry eye, Grade 3–4, % ([1]; 40 treated patients): 0%
Treatment-related Dry eye, Total, % ([1]; 40 treated patients): 10%
Treatment-related Eye phototoxicity, Grade 1–2, % ([1]; 40 treated patients): 20%
Treatment-related Eye phototoxicity, Grade 3–4, % ([1]; 40 treated patients): 0%
Treatment-related Eye phototoxicity, Total, % ([1]; 40 treated patients): 20%
Treatment-related Headache, Grade 1–2, % ([1]; 40 treated patients): 12.5%
Treatment-related Headache, Grade 3–4, % ([1]; 40 treated patients): 0%
Treatment-related Headache, Total, % ([1]; 40 treated patients): 12.5%
Treatment-related Mucositis oral, Grade 1–2, % ([1]; 40 treated patients): 15%
Treatment-related Mucositis oral, Grade 3–4, % ([1]; 40 treated patients): 0%
Treatment-related Mucositis oral, Total, % ([1]; 40 treated patients): 15%
Treatment-related Nausea, Grade 1–2, % ([1]; 40 treated patients): 42.5%
Treatment-related Nausea, Grade 3–4, % ([1]; 40 treated patients): 2.5%
Treatment-related Nausea, Total, % ([1]; 40 treated patients): 45%
Treatment-related Palmar–plantar erythrodysesthesia, Grade 1–2, % ([1]; 40 treated patients): 20%
Treatment-related Palmar–plantar erythrodysesthesia, Grade 3–4, % ([1]; 40 treated patients): 2.5%
Treatment-related Palmar–plantar erythrodysesthesia, Total, % ([1]; 40 treated patients): 22.5%
Treatment-related Phototoxicity (skin), Grade 3–4, % ([1]; 40 treated patients): 15%
Treatment-related Phototoxicity (skin), Total, % ([1]; 40 treated patients): 60%
grade 3 or 4 related AE: nausea [1, 4]: 2.5%
grade 3 or 4 related AE: palmar–plantar erythrodysesthesia syndrome [1, 4]: 2.5%
grade 3 or 4 related AE: skin phototoxicity [1, 4]: 15%
Diarrhea, any causality, all grades (patients) [1, 5]: 1
Eye phototoxicity, any causality, all grades (patients) [1, 5]: 2
Fatigue, any causality, all grades (patients) [1, 5]: 5
Fatigue, number in parentheses (undefined in table; fits grade 3–4 count) [1, 5]: 2
Headache, any causality, all grades (patients) [1, 5]: 2
Nausea, any causality, all grades (patients) [1, 5]: 6
Palmar–plantar erythrodysesthesia syndrome, any causality, all grades (patients) [1, 5]: 1
Phototoxicity, any causality, all grades (patients) [1, 5]: 4
Phototoxicity, number in parentheses (undefined in table; fits grade 3–4 count) [1, 5]: 2
Anemia, Grade 3 or 4 (patients) ([1]; 475* mg/m^2 d1,8,15, N pts 6): 2
Dose-limiting toxicities (number) ([1]; Dose level 9, 650 mg/m^2/dose, Day 1, 8 & 15 Q4 weeks, 5 enrolled, one occurred after cycle 1): 2 **
maximal administered dose (MAD) ([1]; d1, 8, 15 (DL9)): 650 mg/m^2
recommended phase II dose (RP2D) ([1]; days 1, 8 and 15 every 4 weeks, 60-minute intravenous infusion): 475 mg/m^2
SAEs considered related to CX-5461 ([1]; grade 3 phototoxicity (DL0), grade 2 eye phototoxicity (DL8), grade 3 phototoxicity (DL8)): 3
serious AEs (SAEs) reported ([1]; in 13 patients): Sixteen
dose-limiting toxicity (kind) ([1]; in vivo): phototoxicity
participants with dose omission because of phototoxicity ([1]; in vivo): six
participants with dose reductions because of phototoxicity ([1]; in vivo): two
patients discontinuing therapy because of phototoxicity ([1]; in vivo): one
ROS in the presence of UVA (ratio after/before UVA) (HCT116 cells): markedly increased
